According to PubChem BioAssay (NCI):
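GI50 marks 50% less growth. TGI marks complete inhibition of growth.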

Tests used:
Assay in all cases: DTP human tumour cell line panel, 384-well format
[1] = test system: 786-0 renal
[2] = test system: CAKI-1 renal
[3] = test system: SK-OV-3 ovarian
[4] = test system: SK-MEL-2 melanoma
[5] = test system: KM12 colon
[6] = test system: HOP-62 NSCLC
[7] = test system: NCI-H226 lung
[8] = test system: OVCAR-4 ovarian
[9] = test system: HT29 colon
[10] = test system: NCI-H23 lung
[11] = test system: HCC-2998 colon
[12] = test system: A549 NSCLC
[13] = test system: TK-10 renal
[14] = test system: MCF7 breast
[15] = test system: RXF 393 renal
[16] = test system: NCI-H460 NSCLC
[17] = test system: NCI/ADR-RES ovarian
[18] = test system: SNB-19 CNS
[19] = test system: COLO 205 colon
[20] = test system: BT-549 breast
[21] = test system: HOP-92 NSCLC
[22] = test system: OVCAR-3 ovarian
[23] = test system: SF-268 CNS
[24] = test system: HCT-15 colon
[25] = test system: MDA-MB-231 breast
[26] = test system: SN12C renal
[27] = test system: SF-539 CNS
[28] = test system: OVCAR-5 ovarian
[29] = test system: EKVX NSCLC
[30] = test system: NCI-H322M lung
[31] = test system: MDA-MB-435 melanoma
[32] = test system: HS 578T breast
[33] = test system: M14 melanoma
[34] = test system: SK-MEL-28 melanoma
[35] = test system: NCI-H522 lung
[36] = test system: SF-295 CNS
[37] = test system: A498 renal
[38] = test system: SR leukemia
[39] = test system: SK-MEL-5 melanoma
[40] = test system: IGROV1 ovarian
[41] = test system: T-47D breast
[42] = test system: SNB-75 CNS
[43] = test system: U251 glioblastoma
[44] = test system: SW-620 colon
[45] = test system: DU-145 prostate
[46] = test system: MALME-3M melanoma
[47] = test system: ACHN renal
[48] = test system: MOLT-4 leukemia
[49] = test system: UACC-257 melanoma
[50] = test system: PC-3 prostate
[51] = test system: RPMI-8226 leukemia
[52] = test system: CCRF-CEM leukemia
[53] = test system: HL-60(TB) leukemia
[54] = test system: MDA-MB-468 breast
[55] = test system: UACC-62 melanoma
[56] = test system: OVCAR-8 ovarian

CCc1ccc(/C=C2/SC(=S)NC2=O)cc1
GI50 [1]: 28.6 µM
TGI [1]: 88 µM
GI50 [2]: 19.3 µM
TGI [2]: 47.6 µM
GI50 [3]: 18.5 µM
TGI [3]: 43.2 µM
GI50 [4]: 20.9 µM
TGI [4]: 37.7 µM
GI50 [5]: 20.7 µM
TGI [5]: 44.1 µM
GI50 [6]: 22.1 µM
TGI [6]: 42.9 µM
GI50 [7]: 16.7 µM
TGI [7]: 36.5 µM
GI50 [8]: 13.6 µM
TGI [8]: 46.9 µM
GI50 [9]: 24.9 µM
TGI [9]: 57.2 µM
GI50 [10]: 15.7 µM
TGI [10]: 34.6 µM
GI50 [11]: 21.6 µM
TGI [11]: 43.6 µM
GI50 [12]: 19.8 µM
TGI [12]: 46.2 µM
GI50 [13]: 26.3 µM
TGI [13]: 74.1 µM
GI50 [14]: 26.2 µM
TGI [14]: 68 µM
GI50 [15]: 21.2 µM
TGI [15]: 42.7 µM
GI50 [16]: 17.8 µM
TGI [16]: 33.3 µM
GI50 [17]: 21 µM
TGI [17]: 45 µM
GI50 [18]: 33.4 µM
TGI [18]: > 100 µM
GI50 [19]: 27.1 µM
TGI [19]: 54.1 µM
GI50 [20]: 19.7 µM
TGI [20]: 36.1 µM
GI50 [21]: 18.1 µM
TGI [21]: 37.9 µM
GI50 [22]: 18 µM
TGI [22]: 36.5 µM
GI50 [23]: 19.3 µM
TGI [23]: 45.8 µM
GI50 [24]: 18.5 µM
TGI [24]: 44 µM
GI50 [25]: 20.7 µM
TGI [25]: 49.5 µM
GI50 [26]: 29.1 µM
TGI [26]: 95.8 µM
GI50 [27]: 15.9 µM
TGI [27]: 30.8 µM
GI50 [28]: 17.5 µM
TGI [28]: 43.5 µM
GI50 [29]: 20.8 µM
TGI [29]: 49.5 µM
GI50 [30]: 22.5 µM
TGI [30]: 44.8 µM
GI50 [31]: 21.2 µM
TGI [31]: 44.9 µM
GI50 [32]: 19.4 µM
TGI [32]: 39.5 µM
GI50 [33]: 19.6 µM
TGI [33]: 39.6 µM
GI50 [34]: 24.7 µM
TGI [34]: 55.2 µM
GI50 [35]: 14.7 µM
TGI [35]: 36.9 µM
GI50 [36]: 33.7 µM
TGI [36]: > 100 µM
GI50 [37]: 16.7 µM
TGI [37]: 33.1 µM
GI50 [38]: 12.5 µM
TGI [38]: 25.1 µM
GI50 [39]: 18.6 µM
TGI [39]: 33.1 µM
GI50 [40]: 30.5 µM
TGI [40]: > 100 µM
GI50 [41]: 23.6 µM
TGI [41]: 49.4 µM
GI50 [42]: 21.4 µM
TGI [42]: 51.2 µM
GI50 [43]: 17.3 µM
TGI [43]: 33.1 µM
GI50 [44]: 24.5 µM
TGI [44]: 59.6 µM
GI50 [45]: 27.7 µM
TGI [45]: 85.3 µM
GI50 [46]: 15.9 µM
TGI [46]: 33.9 µM
GI50 [47]: 25 µM
TGI [47]: 60.5 µM
GI50 [48]: 16.9 µM
TGI [48]: 30.6 µM
GI50 [49]: 21.3 µM
TGI [49]: 42.1 µM
GI50 [50]: 23.4 µM
TGI [50]: 49.8 µM
GI50 [51]: 15.6 µM
TGI [51]: 29.1 µM
GI50 [52]: 16.5 µM
TGI [52]: 30.3 µM
GI50 [53]: 20.3 µM
TGI [53]: 34.9 µM
GI50 [54]: 16.3 µM
TGI [54]: 33.1 µM
GI50 [55]: 31.1 µM
TGI [55]: 83.2 µM
GI50 [56]: 22.8 µM
TGI [56]: 51 µM
